Results from patent US20090305993A1, “METHODS AND COMPOSITION FOR THE TREATMENT OF GASTROINTESTINAL DISORDERS” (IRONWOOD PHARMACEUTICALS, INC., priority 2006, published 2009).
Where a SMILES comes first, the peptide text is derived from it. Bridges are numbered along the chain shown (N, C = ends).

Tests used:
chymotrypsin = chymotrypsin (Bos taurus, UniProt P00766); details: 37° C., up to 24 h
Description: The stability of SEQ ID NO:3 in the presence of several mammalian digestive enzymes was determined. SEQ ID NO:3 was exposed to a variety of in vitro conditions including digestive enzymes and low ph environments designed to simulate gastric fluid. SEQ ID NO:3 was incubated with chymotrypsin, trypsin, pepsin, aminopeptidase, carboxypeptidase A, and simulated gastric fluid (sgf) at ph 1.0. Samples were collected at 0, 3, and 24 h for all conditions except pepsin digestion and the SGF. For the latter two conditions, samples were obtained at 0, 1, and 3 h. Negative control samples were prepared for initial and final time points. A separate, positive activity control was run in parallel to SEQ ID NO:3. All samples were analyzed by LC/MS
500 μl samples of 0.01 mg/mL SEQ ID NO:3 and guanylin (Sigma-Aldrich, G116; positive control) were prepared in the chymotrypsin reaction buffer (100 mM Tris-HCl, 10 mM CaCl2, pH 7.5) in 2 mL eppendorf tubes. Zero and 24 h control samples were prepared by adding 5 μL of a 10 mM chymostatin (Sigma-Alrich, C7268; a chymotrypsin inhibitor) stock for a final concentration of 100 μM. All samples were incubated at 37° C. for 5 min. […] These standards were used to generate a standard curve for quantification of samples. […]

mouse = experiment: phenylbenzoquinone (PBQ)-induced writhing model; details: oral; SEQ ID NO:5 1 mg/kg, SEQ ID NO:3 2.5 mg/kg; versus vehicle control, FIGS. 8a, 8b
pepsin = pepsin (Sus scrofa, UniProt P00791); details: pH 2.0, 37° C., up to 3 h
Chain of pepsin (P00791 60-385): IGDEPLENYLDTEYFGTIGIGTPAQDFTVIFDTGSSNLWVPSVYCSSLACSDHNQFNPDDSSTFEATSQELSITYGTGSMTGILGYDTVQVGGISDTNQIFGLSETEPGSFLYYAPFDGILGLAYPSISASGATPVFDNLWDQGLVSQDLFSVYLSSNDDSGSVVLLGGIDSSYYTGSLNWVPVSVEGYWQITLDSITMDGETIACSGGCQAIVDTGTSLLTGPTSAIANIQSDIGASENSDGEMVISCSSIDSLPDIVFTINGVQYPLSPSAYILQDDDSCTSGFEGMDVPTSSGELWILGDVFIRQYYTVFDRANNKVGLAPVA
Description: Samples were collected at 0, 3, and 24 h for all conditions except pepsin digestion and the SGF. For the latter two conditions, samples were obtained at 0, 1, and 3 h. Negative control samples were prepared for initial and final time points. […] All samples were analyzed by LC/MS
500 μL samples of 100 U/mL pepsin (Pepsin porcine gastric mucosa; Sigma-Aldrich, P68871; U=release of 0.01 absorbance at 280 nm (A280) as TCA soluble hydrolysis products per min at 37° C. of hemoglobin) were prepared in the pepsin reaction buffer (100 mM HCl-KCl, pH 2.0) in 5 mL polystyrene round bottom tubes. To the control samples (0 and 24 h), 500 μL of a 1 M ammonium acetate (pepsin inhibitor) stock were added, for a final concentration of 0.5 M. All control and test samples (0, 1, and 3 h) were incubated at 37° C. for 5 min, while shaking. […] Samples were returned to the 37° C. shaking water bath. Reactions were quenched by the addition of 500 μL of 1 M ammonium acetate for a final concentration of 0.5 M (except to the control samples, which already contained 0.5 M ammonium acetate). Samples were cooled on ice and stored at 4° C. until analysis. Upon analysis, samples were transferred to a 1 mL 96-well plate. […] These standards were used to generate a standard curve for quantification of samples. Ten (10) μL injections were made of each sample and standard.

[1] = tested on: wild-type or GC-C KO mice; details: 5 μg into loop, FIG. 17a
Description: The effect of SEQ ID NO:3 on cGMP levels and secretion were studied by injecting SEQ ID NO:3 directly into an isolated loop in either wild-type or GC-C KO mice. This was done by surgically ligating a loop in the small intestine of the mouse. […] The loop was roughly centered and was a length of 1-3 cm. The loops were injected with 100 μl of either SEQ ID NO:3 (5 μg) or vehicle (20 mM Tris, pH 7.5 or Krebs Ringer, 10 mM Glucose, HEPES buffer (KRGH)). Following a recovery time of 90 minutes the loops were excised. Weights were recorded for each loop before and after removal of the fluid contained therein. The length of each loop was also recorded. A weight to length ratio (W/L) for each loop was calculated to determine the effects of SEQ ID NO:3 on secretion.
To determine the effect of SEQ ID NO:3 on cGMP activity, fluid from the loop was collected in ice-cold trichloracetic acid (TCA) and stored at −80° C. for use in an assay to measure cGMP levels in the fluid. Intestinal fluid samples were TCA extracted, and cyclic GMP was measured by EIA according to procedures outlined in the Cayman Chemical Cyclic GMP EIA kit (Cayman Chemical, Ann Arbor, Mich.) to determine cyclic GMP levels in the intestinal fluid of the mouse in the presence of either SEQ ID NO:3 or vehicle.

adult male Wistar rats [2] = experiment: basal visceral nociception (visceromotor response to CRD); type: in vivo, rat
Description: (§1) The effect of SEQ ID NO:3 on basal visceral nociception in a model of water avoidance stress-induced visceral hyperalgesia in adult male Wistar rats was tested. The stress involved confining rats to a platform surrounded by water for a period of 1 hour and then measuring their visceromotor response to colonic distension using electromyography (EMG).
Electrode leads were then tunneled subcutaneously and externalized laterally for future access. Following surgery, rats were housed in pairs and allowed to recover for at least 7 days. On the day of the experiment, animals were lightly anesthetized with halothane, and a lubricated latex balloon (6 cm) was inserted intra-anally into the descending colon. Animals were allowed to recover for 30 minutes, and colorectal distension (CRD) was initiated. The CRD procedure consisted of graded intensities of phasic CRD (10, 20, 40, 60 mmHg; 20 s duration; 4 min inter-stimulus interval). Visceromotor response (VMR) to CRD was quantified by measuring EMG activity. […] Animals were allowed 1 hour recovery and then SEQ ID NO:3 or vehicle was orally administered. At 1 hour following administration of SEQ ID NO:3 or vehicle CRD was repeated. […] The mean value (+/−SEM) of in vehicle and SEQ ID NO:3 treated groups (n=7 for each group) is graphically depicted in FIG. 7e.

intestinal GC-C receptor = biological target: T1, intestinal GC-C receptor (Homo sapiens, UniProt P25092); experiment: intestinal GC-C receptor activity assay (cyclic GMP EIA) in T84 cells; type: cell-based; details: chemically synthesized peptides, FIGS. 2a and 2b
T1 construct: monolayers of T84 cells in 24-well plates; host or cells: T84 human colon carcinoma cells
T1 sequence (P25092 24-1073): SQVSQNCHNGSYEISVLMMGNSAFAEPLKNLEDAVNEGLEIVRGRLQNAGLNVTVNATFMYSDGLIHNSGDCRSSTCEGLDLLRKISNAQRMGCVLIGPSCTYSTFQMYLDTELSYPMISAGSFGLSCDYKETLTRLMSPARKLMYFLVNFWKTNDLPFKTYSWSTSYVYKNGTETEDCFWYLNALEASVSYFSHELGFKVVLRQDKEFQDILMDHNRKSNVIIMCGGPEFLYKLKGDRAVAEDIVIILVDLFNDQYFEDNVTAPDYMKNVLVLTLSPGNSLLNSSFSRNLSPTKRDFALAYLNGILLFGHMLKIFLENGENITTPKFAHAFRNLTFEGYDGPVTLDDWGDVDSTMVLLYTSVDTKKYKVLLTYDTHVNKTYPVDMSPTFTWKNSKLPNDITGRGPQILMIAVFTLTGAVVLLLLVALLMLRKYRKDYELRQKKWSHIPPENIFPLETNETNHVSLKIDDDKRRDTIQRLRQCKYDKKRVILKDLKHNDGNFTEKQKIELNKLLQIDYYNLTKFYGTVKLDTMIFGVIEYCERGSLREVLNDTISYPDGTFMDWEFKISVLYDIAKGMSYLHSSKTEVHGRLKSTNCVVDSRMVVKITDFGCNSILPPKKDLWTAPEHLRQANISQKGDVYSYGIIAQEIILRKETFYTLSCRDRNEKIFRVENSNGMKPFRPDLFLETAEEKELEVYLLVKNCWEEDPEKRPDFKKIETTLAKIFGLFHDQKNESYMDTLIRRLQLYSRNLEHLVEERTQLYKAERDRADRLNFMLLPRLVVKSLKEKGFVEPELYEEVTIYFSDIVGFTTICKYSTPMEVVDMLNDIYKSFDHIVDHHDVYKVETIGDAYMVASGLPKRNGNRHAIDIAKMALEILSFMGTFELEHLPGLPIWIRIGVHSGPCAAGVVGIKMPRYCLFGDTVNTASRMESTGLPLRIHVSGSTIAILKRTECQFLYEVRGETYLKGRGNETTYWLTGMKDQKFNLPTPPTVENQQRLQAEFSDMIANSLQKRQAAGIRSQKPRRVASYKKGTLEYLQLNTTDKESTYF
Description: The ability of SEQ ID NO:5, SEQ ID NO:4, SEQ ID NO:3, and SEQ ID NO:6 to activate the intestinal GC-C receptor was assessed in an assay employing the T84 human colon carcinoma cell line (American Type Culture Collection (Bethesda, Md.)). For the assays cells were grown to confluency in 24-well culture plates with a 1:1 mixture of Ham's F12 medium and Dulbecco's modified Eagle's medium (DMEM), supplemented with 5% fetal calf serum and were used at between passages 54 and 60.
Briefly, monolayers of T84 cells in 24-well plates were washed twice with 1 ml/well DMEM, then incubated at 37° C. for 10 min with 0.45 ml DMEM containing 1 mM isobutylmethylxanthine (IBMX), a cyclic nucleotide phosphodiesterase inhibitor. Test peptides (50 μl) were then added and incubated for 30 minutes at 37° C. The media was aspirated and the reaction was then terminated by the addition of ice cold 0.5 ml of 0.1N HCl. The samples were held on ice for 20 minutes and then evaporated to dryness using a heat gun or vacuum centrifugation.

[3] = oral bioavailability in rats, LCMS; type: in vivo, rat; details: SEQ ID NO:3 10 mg/kg
Description: Similarly, oral bioavailability was determined in rats using LCMS methodology. Rat plasma samples containing SEQ ID NO:3 and/or SEQ ID NO:6 were extracted using a Waters Oasis MAX 96 well solid phase extraction (SPE) plate. A 200 μL volume of rat plasma was mixed with 200 μL of ^13C9, ^15N—SEQ ID NO:3 in the well of a prepared SPE plate. The samples were drawn through the stationary phase with 15 mm Hg vacuum. All samples were rinsed with 200 μL of 2% ammonium hydroxide in water followed by 200 μL of 20% methanol in water. The samples were eluted with consecutive 100 μL volumes of […] formic acid/water/methanol and 100 μL 5/15/80 formic acid/water/methanol. The samples were dried under nitrogen and resuspended in 100 μL of 20% methanol in water. Samples were analyzed by a Waters Quattro Micro mass spectrometer coupled to a Waters 1525 binary pump with a Waters 2777 autosampler. A 40 μL volume of each sample was injected onto a Thermo Hypersil GOLD C18 column (2.1×50 mm, 5 um). SEQ ID NO:3 and SEQ ID NO:6 were eluted by a gradient over 3 minutes with acetonitrile and water containing 0.05% trifluoroacetic acid. The Quattro Micro mass spectrometer was run in multiple reaction monitoring (MRM) mode using the mass transitions of 764>182 and 682>136 for SEQ ID NO:3 and SEQ ID NO:6 respectively. Using this methodology, SEQ ID NO:3 was dosed orally and by IV to rats at 10 mg/kg. […] In this experiment, the limit of detection (LOD) for SEQ ID NO:6 was 0.78 nM. SEQ ID NO:6 was detected at all time points for the intravenous dose and was not detected beyond 240 min for the oral dose. For non-detected values, the LOD was used as an upper estimate of the concentration of SEQ ID NO:6. The calculated value for AUCp.o., (0-6h) was <1308 nM-min and AUCi.v.,(0-6h) was 1,590,000 nM-min. The 6 h bioavailability of SEQ ID NO:6 determined by circulating plasma levels was 0.08%

adult male Wistar rats [4] = experiment: water avoidance stress-induced visceral hyperalgesia model; type: in vivo, rat; details: oral 3 μg/kg, FIG. 7f
Description: as §1
Electrode leads were then tunneled subcutaneously and externalized laterally for future access. Following surgery, rats were housed in pairs and allowed to recover for at least 7 days. On the day of the experiment, animals were lightly anesthetized with halothane, and a lubricated latex balloon (6 cm) was inserted intra-anally into the descending colon. Animals were allowed to recover for 30 minutes, and colorectal distension (CRD) was initiated. The CRD procedure consisted of graded intensities of phasic CRD (10, 20, 40, 60 mmHg; 20 s duration; 4 min inter-stimulus interval). Visceromotor response (VMR) to CRD was quantified by measuring EMG activity. […] Animals were allowed 1 hour recovery and then SEQ ID NO:3 or vehicle was orally administered. At 1 hour following administration of SEQ ID NO:3 or vehicle CRD was repeated. […]
To determine the effect of SEQ ID NO:3 in a model of water avoidance stress-induced visceral hyperalgesia, a baseline CRD was recorded and then the animals were subjected to 1 hour of water avoidance stress. […]

Compound: C[C@@H]1NC(=O)[C@@H]2CCCN2C(=O)[C@H](CC(N)=O)NC(=O)[C@@H]2CSSC[C@H](N)C(=O)N[C@H]3CSSC[C@H](NC1=O)C(=O)N[C@@H]([C@@H](C)O)C(=O)NCC(=O)N[C@H](C(=O)N[C@@H](Cc1ccc(O)cc1)C(=O)O)CSSC[C@H](NC(=O)[C@H](Cc1ccc(O)cc1)NC(=O)[C@H](CCC(=O)O)NC3=O)C(=O)N2 [SEQ ID NO:3] (H-CCEYCCNPACTGCY-OH; disulfide 1-6, 2-10, 5-13; N-terminus and C-terminus assumed)
- Cleavage of SEQ ID NO: 3 by proteolytic substance (chymotrypsin): not detectable
- writhings (mouse): Significant reductions in writhings
- Cleavage of SEQ ID NO: 3 by proteolytic substance (pepsin): not detectable
- cGMP activity in ligated loop fluid [1]: no effect
- secretion (loop weight to length ratio) [1]: no effect
- basal visceral nociception (adult male Wistar rats [2]; oral 3 μg/kg): no effects
- basal visceral nociception (adult male Wistar rats [2]; oral 30 μg/kg, versus vehicle, FIG. 7e): increased basal visceral nociception
- activity in GC-C receptor activity assay (intestinal GC-C receptor): activity comparable to SEQ ID NO:4
- 6 h bioavailability when AUC values for SEQ ID NO:6 are included [3]: 0.13%
- visceromotor response to CRD 24 hours after water avoidance stress (adult male Wistar rats [4]): exhibited anti-hyperalgesic properties
